Assay results: PubChem BioAssay AID1963874 (Molecular Pharmacology Branch, DTP, NCI, 2024)

Test system: 253994-281-T-J1-PDC KRAS-mutant spheroids with HUVEC/MSC, viability
Assay: Anticancer human tumor 253994-281-T-J1-PDC patient-derived colorectal carcinoma cell line growth inhibition [KRAS2]
Details: for IC50: curve of first compound; for viability, T/C: stronger effect = lower value
Method in brief: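 KRAS-mutant tumor cells were grown as spheroids with HUVEC endothelial cells and human MSCs as stroma. Targeted agents were tested alone and with KRAS pathway inhibitors. Doses started at or near clinical Cmax, or 10 microM, descending half-log.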

[1] = second compound 0.1 µM, first compound 0.0316 µM
[2] = second compound 0.1 µM, first compound 0.1 µM
[3] = second compound 0.1 µM, first compound 0.316 µM
[4] = second compound 0.1 µM, first compound 1 µM
[5] = second compound 0.1 µM, first compound 3.16 µM
[6] = second compound 0.316 µM, first compound 0.0316 µM
[7] = second compound 0.316 µM, first compound 0.1 µM
[8] = second compound 0.316 µM, first compound 0.316 µM
[9] = second compound 0.316 µM, first compound 1 µM
[10] = second compound 0.316 µM, first compound 3.16 µM
[11] = second compound 1 µM, first compound 0.0316 µM
[12] = second compound 1 µM, first compound 0.1 µM
[13] = second compound 1 µM, first compound 0.316 µM
[14] = second compound 1 µM, first compound 1 µM
[15] = second compound 1 µM, first compound 3.16 µM
[16] = second compound 3.16 µM, first compound 0.0316 µM
[17] = second compound 3.16 µM, first compound 0.1 µM
[18] = second compound 3.16 µM, first compound 0.316 µM
[19] = second compound 3.16 µM, first compound 1 µM
[20] = second compound 3.16 µM, first compound 3.16 µM
[21] = second compound 10 µM, first compound 0.0316 µM
[22] = second compound 10 µM, first compound 0.1 µM
[23] = second compound 10 µM, first compound 0.316 µM
[24] = second compound 10 µM, first compound 1 µM
[25] = second compound 10 µM, first compound 3.16 µM
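Note: spheroids exposed to agents for seven days before readout.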
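Throughout, for viability, T/C: percent of DMSO vehicle control viability.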

Row | Structure (SMILES) | IC50 (second compound 0.1 µM) [nM] | IC50 (second compound 0.316 µM) [nM] | IC50 (second compound 1 µM) [nM] | IC50 (second compound 3.16 µM) [nM] | IC50 (second compound 10 µM) [nM] | viability, T/C [1] [%] | viability, T/C [2] [%] | viability, T/C [3] [%] | viability, T/C [4] [%] | viability, T/C [5] [%] | viability, T/C [6] [%] | viability, T/C [7] [%] | viability, T/C [8] [%] | viability, T/C [9] [%] | viability, T/C [10] [%] | viability, T/C [11] [%] | viability, T/C [12] [%] | viability, T/C [13] [%] | viability, T/C [14] [%] | viability, T/C [15] [%] | further results
1 | Cn1nccc1Nc1nccc(-c2cc3c(s2)C(C)(C)N(CCN2CCOCC2)C3=O)n1 + C=CC(=O)N1CCN(c2nc(=O)n(-c3c(C)ccnc3C(C)C)c3nc(-c4c(O)cccc4F)c(F)cc23)C(C)C1 | 2390 | 3040 | 2770 | 2480 | 3000 | 97.8 | 105 | 85.6 | 68.6 | 45 | 102 | 110 | 86.3 | 78.7 | 46.7 | 90.2 | 87.6 | 81.7 | 73.6 | 46.3 | viability, T/C (second compound 0.1 µM, first compound 10 µM): 26.1%; viability, T/C (second compound 0.316 µM, first compound 10 µM): 32.8%; viability, T/C (second compound 1 µM, first compound 10 µM): 26.7%; viability, T/C [16]: 87%; viability, T/C [17]: 94.2%; viability, T/C [18]: 86.4%; viability, T/C [19]: 72.1%; viability, T/C [20]: 44.1%; viability, T/C (second compound 3.16 µM, first compound 10 µM): 33.8%; viability, T/C [21]: 84.2%; viability, T/C [22]: 80.5%; viability, T/C [23]: 96.7%; viability, T/C [24]: 75%; viability, T/C [25]: 49.6%; viability, T/C (second compound 10 µM, first compound 10 µM): 35.4%
2 | CC1COCCN1c1cc(-c2ccnn2C)c2ccnc(-c3ccn[nH]3)c2n1 (stereo not given) + CC1OCC2(CCN(c3cnc(Sc4ccnc(N)c4Cl)c(N)n3)CC2)C1N | 280 | 141 | 116 | 49.7 | < 10 | 81.8 | 62.9 | 44 | 47 | 53.1 | 83 | 55.4 | 33.3 | 36.4 | 43.6 | 70.4 | 52.8 | 30.9 | 27.6 | 38 | viability, T/C (second compound 0.1 µM, first compound 0.01 µM): 87%; viability, T/C (second compound 0.316 µM, first compound 0.01 µM): 87.5%; viability, T/C (second compound 1 µM, first compound 0.01 µM): 75.2%; viability, T/C (second compound 3.16 µM, first compound 0.01 µM): 59.5%; viability, T/C [16]: 58.9%; viability, T/C [17]: 35.8%; viability, T/C [18]: 24.1%; viability, T/C [19]: 24.3%; viability, T/C [20]: 28.2%; viability, T/C (second compound 10 µM, first compound 0.01 µM): 43%; viability, T/C [21]: 53.4%; viability, T/C [22]: 25.1%; viability, T/C [23]: 16.7%; viability, T/C [24]: 18.9%; viability, T/C [25]: 23.6%
